According to ChEMBL document CHEMBL5465560, “Selectivity Literature for EUbOPEN Chemogenomic Library” (2024):

Legend:
[1] = target: T1, Dual specificity mitogen-activated protein kinase kinase 6 (Homo sapiens) (UniProt P52564); test: Selectivity interaction (KinomeScan (DiscoverX)) EUB0001079a MAP2K6; settings: at 1 µM
T1 sequence (whole entry): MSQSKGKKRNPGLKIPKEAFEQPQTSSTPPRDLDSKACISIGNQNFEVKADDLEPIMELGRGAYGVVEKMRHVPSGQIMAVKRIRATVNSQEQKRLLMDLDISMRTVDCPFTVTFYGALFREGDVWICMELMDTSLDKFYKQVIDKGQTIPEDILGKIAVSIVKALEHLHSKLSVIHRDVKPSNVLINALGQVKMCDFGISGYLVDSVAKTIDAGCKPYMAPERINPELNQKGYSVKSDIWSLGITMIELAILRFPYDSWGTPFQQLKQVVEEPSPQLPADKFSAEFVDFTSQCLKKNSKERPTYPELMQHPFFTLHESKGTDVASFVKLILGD

[2] = target: Cyclin-dependent kinase 15 (Homo sapiens) (UniProt Q96Q40); test: Selectivity interaction (KinomeScan (DiscoverX)) EUB0001079a CDK15; settings: at 1 µM
[3] = target: Calcium/calmodulin-dependent protein kinase type II subunit alpha (Homo sapiens, UniProt Q9UQM7); test: Selectivity interaction (KinomeScan (DiscoverX)) EUB0001079a CAMK2A; settings: at 1 µM
Chain of Calcium/calmodulin-dependent protein kinase type II subunit alpha (Q9UQM7 whole entry): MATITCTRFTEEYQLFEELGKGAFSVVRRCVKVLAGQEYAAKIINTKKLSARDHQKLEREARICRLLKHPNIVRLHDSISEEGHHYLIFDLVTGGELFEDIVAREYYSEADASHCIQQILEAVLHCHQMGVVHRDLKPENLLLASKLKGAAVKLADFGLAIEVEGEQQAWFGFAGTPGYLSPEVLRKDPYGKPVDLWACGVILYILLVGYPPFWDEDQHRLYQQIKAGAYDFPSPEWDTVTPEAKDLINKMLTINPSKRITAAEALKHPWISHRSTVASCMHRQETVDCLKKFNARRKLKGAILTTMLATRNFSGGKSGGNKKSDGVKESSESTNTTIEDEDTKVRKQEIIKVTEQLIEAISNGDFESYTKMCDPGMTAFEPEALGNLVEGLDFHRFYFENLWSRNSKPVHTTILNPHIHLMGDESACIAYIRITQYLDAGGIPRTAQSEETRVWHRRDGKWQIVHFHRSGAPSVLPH

[4] = target: T2, Mitogen-activated protein kinase kinase kinase 15 (Homo sapiens) (UniProt Q6ZN16); test: Selectivity interaction (KinomeScan (DiscoverX)) EUB0000666a MAP3K15; settings: at 10 µM
T2 sequence (whole entry): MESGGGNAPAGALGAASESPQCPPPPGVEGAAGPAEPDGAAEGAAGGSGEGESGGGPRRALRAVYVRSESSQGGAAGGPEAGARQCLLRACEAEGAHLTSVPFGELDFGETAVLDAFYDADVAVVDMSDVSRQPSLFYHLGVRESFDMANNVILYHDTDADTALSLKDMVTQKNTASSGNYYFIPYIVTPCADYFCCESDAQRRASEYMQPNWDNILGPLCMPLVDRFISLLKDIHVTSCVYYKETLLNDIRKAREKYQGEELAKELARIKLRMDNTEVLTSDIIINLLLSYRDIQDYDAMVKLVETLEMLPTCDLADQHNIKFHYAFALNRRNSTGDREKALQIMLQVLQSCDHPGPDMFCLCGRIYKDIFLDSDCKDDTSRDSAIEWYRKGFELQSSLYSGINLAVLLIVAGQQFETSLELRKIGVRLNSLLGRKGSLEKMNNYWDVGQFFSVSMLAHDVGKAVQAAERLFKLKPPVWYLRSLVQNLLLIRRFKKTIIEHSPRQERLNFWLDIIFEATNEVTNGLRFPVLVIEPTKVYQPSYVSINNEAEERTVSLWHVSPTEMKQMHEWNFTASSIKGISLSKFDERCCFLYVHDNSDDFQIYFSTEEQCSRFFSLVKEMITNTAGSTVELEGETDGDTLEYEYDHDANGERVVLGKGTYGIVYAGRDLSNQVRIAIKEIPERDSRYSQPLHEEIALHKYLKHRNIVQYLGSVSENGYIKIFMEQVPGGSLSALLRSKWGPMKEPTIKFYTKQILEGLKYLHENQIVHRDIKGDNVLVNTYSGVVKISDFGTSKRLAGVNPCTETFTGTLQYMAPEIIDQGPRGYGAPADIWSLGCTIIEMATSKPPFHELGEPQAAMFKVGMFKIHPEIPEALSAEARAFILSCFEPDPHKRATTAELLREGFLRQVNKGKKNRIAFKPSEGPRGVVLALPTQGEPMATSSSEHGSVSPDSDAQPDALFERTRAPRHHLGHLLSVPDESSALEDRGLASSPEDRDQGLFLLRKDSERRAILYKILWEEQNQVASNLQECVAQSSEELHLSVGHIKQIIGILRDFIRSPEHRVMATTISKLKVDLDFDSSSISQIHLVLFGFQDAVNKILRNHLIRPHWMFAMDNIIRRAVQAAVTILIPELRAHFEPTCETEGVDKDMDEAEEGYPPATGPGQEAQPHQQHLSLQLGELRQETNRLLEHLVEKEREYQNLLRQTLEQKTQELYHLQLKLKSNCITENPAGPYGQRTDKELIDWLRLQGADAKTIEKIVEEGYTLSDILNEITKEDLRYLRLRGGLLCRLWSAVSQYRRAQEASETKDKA

[5] = target: Delta-type opioid receptor (Homo sapiens, UniProt P41143); test: Selectivity interaction (Eurofins CEREP Diversity Profile (receptors and ion channels)) EUB0000279b OPRD1; settings: at 10 µM
Chain of Delta-type opioid receptor (P41143 whole entry): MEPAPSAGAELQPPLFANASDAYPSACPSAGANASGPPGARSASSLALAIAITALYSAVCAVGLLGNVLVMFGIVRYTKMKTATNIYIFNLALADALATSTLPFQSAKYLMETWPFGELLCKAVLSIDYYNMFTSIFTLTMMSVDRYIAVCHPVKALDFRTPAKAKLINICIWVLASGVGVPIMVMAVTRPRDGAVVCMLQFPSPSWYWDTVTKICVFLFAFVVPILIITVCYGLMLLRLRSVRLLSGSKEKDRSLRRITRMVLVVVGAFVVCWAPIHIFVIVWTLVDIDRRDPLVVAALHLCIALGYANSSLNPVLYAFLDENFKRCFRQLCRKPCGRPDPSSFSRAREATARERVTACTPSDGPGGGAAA

[6] = target: T3, TGF-beta receptor type-1 (Homo sapiens) (UniProt P36897); test: Selectivity interaction (KinomeScan (DiscoverX)) EUB0001619a TGFBR1; settings: at 1 µM
T3 sequence (whole entry): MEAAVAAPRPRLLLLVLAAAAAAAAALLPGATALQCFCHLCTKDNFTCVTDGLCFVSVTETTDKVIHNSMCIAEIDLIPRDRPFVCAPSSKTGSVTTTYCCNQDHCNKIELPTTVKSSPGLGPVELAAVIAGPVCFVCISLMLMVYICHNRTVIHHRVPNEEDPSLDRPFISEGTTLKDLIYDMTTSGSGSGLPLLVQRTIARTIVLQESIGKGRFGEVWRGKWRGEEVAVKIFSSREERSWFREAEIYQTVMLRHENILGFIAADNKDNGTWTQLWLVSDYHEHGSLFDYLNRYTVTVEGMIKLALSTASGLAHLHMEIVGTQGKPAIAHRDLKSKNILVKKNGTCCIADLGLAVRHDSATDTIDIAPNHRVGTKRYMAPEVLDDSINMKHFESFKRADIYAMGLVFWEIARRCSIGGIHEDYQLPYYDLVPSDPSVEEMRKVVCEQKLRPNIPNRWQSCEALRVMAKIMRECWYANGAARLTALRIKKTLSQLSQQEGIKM

[7] = target: Cyclin-dependent kinase 13 (Homo sapiens, UniProt Q14004); test: Selectivity interaction (ActivX KiNativ screen (ex vivo kinase selectivity in human PBMCs)) EUB0001619a CDK13; type: cell-based; settings: PBMC, at 1 µM
Chain of Cyclin-dependent kinase 13 (Q14004 whole entry, looked up): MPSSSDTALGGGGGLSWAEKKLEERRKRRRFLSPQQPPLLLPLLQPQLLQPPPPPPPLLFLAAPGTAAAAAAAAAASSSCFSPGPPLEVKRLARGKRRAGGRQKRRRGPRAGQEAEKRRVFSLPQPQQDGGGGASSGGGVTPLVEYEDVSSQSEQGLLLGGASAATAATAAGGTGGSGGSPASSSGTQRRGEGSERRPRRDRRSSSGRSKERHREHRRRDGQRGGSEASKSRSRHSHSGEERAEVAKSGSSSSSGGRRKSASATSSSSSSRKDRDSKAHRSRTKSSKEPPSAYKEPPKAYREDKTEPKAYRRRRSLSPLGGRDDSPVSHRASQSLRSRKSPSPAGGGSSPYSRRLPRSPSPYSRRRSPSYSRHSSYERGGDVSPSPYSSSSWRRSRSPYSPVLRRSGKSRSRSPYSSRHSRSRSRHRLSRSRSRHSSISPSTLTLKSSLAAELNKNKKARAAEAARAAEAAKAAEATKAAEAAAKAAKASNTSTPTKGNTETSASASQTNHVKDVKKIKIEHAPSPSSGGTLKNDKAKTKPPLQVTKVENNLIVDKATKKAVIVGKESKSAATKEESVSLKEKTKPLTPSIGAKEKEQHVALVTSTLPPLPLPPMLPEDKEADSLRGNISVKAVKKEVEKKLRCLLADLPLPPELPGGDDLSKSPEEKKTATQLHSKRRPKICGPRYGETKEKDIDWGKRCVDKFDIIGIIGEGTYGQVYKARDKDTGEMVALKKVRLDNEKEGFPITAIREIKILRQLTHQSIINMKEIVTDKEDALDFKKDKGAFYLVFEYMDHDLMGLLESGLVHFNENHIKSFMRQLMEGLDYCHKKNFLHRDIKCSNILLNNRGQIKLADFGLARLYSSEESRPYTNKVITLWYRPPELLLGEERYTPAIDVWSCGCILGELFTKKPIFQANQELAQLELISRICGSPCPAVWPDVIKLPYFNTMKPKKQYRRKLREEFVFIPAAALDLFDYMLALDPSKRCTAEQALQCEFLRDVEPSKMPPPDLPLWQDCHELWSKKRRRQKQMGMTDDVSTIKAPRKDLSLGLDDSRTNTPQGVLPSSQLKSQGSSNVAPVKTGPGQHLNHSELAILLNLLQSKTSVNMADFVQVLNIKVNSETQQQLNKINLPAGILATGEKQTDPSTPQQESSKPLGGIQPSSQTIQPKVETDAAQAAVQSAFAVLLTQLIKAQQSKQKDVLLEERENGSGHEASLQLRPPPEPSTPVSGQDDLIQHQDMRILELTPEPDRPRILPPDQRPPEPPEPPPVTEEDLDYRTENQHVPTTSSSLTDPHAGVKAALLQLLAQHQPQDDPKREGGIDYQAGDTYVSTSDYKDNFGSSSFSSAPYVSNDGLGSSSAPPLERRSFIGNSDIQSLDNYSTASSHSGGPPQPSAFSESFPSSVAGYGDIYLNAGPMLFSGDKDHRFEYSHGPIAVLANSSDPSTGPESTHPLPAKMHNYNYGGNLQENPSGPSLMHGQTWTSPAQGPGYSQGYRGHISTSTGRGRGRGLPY

[8] = target: Histone-lysine N-methyltransferase SUV39H2 (Homo sapiens) (UniProt Q9H5I1); test: Selectivity interaction (Methyltransferase screen (Scintillation proximity assays)) EUB0000255b SUV39H2
Chain of Histone-lysine N-methyltransferase SUV39H2 (Homo sapiens) (Q9H5I1 whole entry): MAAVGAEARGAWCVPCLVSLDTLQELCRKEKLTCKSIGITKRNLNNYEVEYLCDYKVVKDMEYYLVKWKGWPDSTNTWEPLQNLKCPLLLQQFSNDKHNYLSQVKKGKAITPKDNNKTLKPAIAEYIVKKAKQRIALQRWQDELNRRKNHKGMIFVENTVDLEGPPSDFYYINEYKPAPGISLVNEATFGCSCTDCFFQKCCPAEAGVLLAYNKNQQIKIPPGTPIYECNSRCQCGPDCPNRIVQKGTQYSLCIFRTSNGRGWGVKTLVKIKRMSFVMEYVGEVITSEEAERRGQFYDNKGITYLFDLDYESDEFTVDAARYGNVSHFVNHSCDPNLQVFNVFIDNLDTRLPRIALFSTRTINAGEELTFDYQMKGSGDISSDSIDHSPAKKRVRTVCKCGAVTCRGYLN

[9] = target: Protein kinase C theta type (Homo sapiens, UniProt Q04759); test: Selectivity interaction (SelectScreen profiling (Invitrogen)) EUB0000607a PRKCQ; settings: at 2 µM
Chain of Protein kinase C theta type (Q04759 whole entry, looked up): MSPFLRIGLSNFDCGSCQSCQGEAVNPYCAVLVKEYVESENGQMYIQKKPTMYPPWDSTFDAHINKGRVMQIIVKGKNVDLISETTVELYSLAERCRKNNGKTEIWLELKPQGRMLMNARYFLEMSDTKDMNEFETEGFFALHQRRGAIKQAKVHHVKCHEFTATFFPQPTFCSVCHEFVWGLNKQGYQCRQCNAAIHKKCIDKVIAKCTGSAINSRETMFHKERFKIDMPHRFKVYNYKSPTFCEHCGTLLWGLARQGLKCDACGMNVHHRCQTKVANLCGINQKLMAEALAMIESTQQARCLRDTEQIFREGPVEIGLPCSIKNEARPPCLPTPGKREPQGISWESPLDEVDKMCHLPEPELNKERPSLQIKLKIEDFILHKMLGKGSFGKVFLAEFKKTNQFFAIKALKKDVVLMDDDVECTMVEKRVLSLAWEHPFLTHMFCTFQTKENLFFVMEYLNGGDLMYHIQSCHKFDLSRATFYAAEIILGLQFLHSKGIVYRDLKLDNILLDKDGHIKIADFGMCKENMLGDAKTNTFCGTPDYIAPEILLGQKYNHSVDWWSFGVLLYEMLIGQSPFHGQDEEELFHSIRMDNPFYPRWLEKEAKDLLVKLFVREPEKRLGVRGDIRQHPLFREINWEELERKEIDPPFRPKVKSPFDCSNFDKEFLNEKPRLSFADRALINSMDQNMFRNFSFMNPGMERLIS

[10] = target: Tyrosine-protein kinase JAK1 (Homo sapiens, UniProt P23458); test: Selectivity interaction (ActivX KiNativ screen (kinase selectivity in THP-1 cell lysates)) EUB0000639a JAK1; type: subcellular; settings: lysate, at 0.01 µM
Chain of Tyrosine-protein kinase JAK1 (P23458 whole entry, canonical isoform): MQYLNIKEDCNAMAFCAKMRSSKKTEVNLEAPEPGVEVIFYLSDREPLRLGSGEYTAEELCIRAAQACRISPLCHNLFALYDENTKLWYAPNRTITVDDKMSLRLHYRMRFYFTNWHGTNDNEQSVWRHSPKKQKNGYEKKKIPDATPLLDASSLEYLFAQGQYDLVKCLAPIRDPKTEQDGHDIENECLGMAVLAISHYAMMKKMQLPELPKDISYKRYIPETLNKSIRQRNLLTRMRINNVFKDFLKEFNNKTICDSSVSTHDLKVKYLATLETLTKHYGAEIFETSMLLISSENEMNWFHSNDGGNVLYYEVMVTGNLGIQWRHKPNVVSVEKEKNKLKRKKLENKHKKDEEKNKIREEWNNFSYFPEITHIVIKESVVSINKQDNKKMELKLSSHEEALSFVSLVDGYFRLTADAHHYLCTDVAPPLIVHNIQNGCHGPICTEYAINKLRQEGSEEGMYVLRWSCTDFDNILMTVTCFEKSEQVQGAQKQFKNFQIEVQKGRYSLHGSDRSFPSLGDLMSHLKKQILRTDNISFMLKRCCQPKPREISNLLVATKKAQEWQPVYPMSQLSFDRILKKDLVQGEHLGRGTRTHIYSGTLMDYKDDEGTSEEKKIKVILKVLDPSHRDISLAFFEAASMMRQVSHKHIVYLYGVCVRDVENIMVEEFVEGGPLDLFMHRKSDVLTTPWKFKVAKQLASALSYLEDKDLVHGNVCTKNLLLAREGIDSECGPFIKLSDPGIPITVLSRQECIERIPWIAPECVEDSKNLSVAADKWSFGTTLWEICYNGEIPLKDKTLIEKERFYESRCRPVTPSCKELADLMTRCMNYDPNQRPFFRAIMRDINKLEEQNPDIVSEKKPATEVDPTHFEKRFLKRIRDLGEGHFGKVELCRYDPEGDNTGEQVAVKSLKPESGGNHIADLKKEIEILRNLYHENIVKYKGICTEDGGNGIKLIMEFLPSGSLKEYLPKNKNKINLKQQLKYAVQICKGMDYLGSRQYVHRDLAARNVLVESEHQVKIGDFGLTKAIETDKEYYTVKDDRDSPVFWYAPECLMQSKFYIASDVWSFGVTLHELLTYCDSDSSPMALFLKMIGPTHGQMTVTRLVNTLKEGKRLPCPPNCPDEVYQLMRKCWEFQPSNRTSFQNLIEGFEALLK

[11] = target: Casein kinase I isoform gamma-2 (Homo sapiens) (UniProt P78368); test: Selectivity interaction (KinomeScan (DiscoverX)) EUB0000092b CSNK1G2; settings: at 10 µM
Chain of Casein kinase I isoform gamma-2 (Homo sapiens) (P78368 whole entry, looked up, canonical isoform): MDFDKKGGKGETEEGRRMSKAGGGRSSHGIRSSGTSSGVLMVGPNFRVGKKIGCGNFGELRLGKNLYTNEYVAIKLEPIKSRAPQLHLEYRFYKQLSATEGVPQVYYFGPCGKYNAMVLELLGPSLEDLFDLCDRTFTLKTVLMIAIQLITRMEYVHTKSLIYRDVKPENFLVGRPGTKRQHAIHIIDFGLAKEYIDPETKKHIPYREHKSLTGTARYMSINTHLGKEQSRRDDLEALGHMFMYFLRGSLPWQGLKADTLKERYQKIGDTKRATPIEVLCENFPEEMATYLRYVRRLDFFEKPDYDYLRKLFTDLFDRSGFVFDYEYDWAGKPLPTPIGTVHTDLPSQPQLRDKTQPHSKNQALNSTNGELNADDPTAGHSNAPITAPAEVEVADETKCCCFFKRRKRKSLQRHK

`Nc1cnc(N2CCc3cc(S(=O)(=O)Nc4c(F)cc(Cl)cc4F)cc(N4CCCC4=O)c32)nc1` [TP-020n] gave a % of control [1] of 71%, a % of control [2] of 80% and a % of control [3] of 92%.
With `O=C(NOC[C@H](O)CO)c1ccc(F)c(F)c1Nc1ccc(I)cc1F` the % of control [4] was 100%.
Work on `CC(=O)c1cc(-c2ccccc2OCC2CC2)c2ncccn12` yielded a % of control [5] of 91%.
`N#Cc1cccc(-c2c[nH]c3ncnc(N4CCOCC4)c23)c1` showed a % of control [6] of 79% and a % of inhibition [7] of 3%.
In the case of `COCCN1CCC(c2cc(CN(C)C(=O)c3cccc(Oc4ccccc4)c3)ccn2)CC1`, the % activity ([8]; at 1 µM) is reported as > 95% and the % activity ([8]; at 10 µM) is reported as > 90%.
Compound `CNC(=O)Nc1ccc(-c2nc(N3CC4CCC(C3)O4)c3cnn(C4CCC5(CC4)OCCO5)c3n2)cc1` has a % of inhibition [9] of 5%.
With `CC[C@@H]1[C@H](F)C(=O)N[C@@H]1COc1nccc2cc(C(N)=O)c(OC)cc12` [ZIMLOVISERTIB] the % of inhibition [10] was -2.1%.
Work on `CCC(=O)N1CCN(c2ccc(-n3c(=O)ccc4cnc5ccc(-c6cnc7ccccc7c6)cc5c43)cc2C(F)(F)F)CC1` yielded a % of control [11] of 100%.
